A short description of series [1]: Tmax in BALBnu/CrlCrlj mouse at 0.1 to 1 mg/kg, po measured for 1 to 24 hrs. The series is classed as ADME, organism-based. The conditions noted are these: in vivo, dose lower 0.1 mg/kg, time lower 1 hrs, dose upper 1 mg/kg, time upper 24 hrs.
The nature of series [2]: Tmax in BALBnu/CrlCrlj mouse xenografted with human KM12 cell tumor at 0.06 to 0.6 mg/kg, po measured after 48 hrs. The format is ADME, organism-based. The conditions noted are these: in vivo, dose 0.06-0.6 mg/kg. (Xenograft models place foreign cells or tissue in a host animal.)

SMILES strings stand for the structures.

Here are results for 1 compound from ChEMBL document CHEMBL5137061, “Design and Measurement of Drug Tissue Concentration Asymmetry and Tissue Exposure-Effect (Tissue PK-PD) Evaluation” (J Med Chem, 2022).

In general, Tmax refers to the time from dosing to the highest level. As for `CS(=O)(=O)c1ccc(C(F)(F)F)cc1NC(=O)Nc1cnc(Oc2ccc(-c3cc(Cl)cnc3N)cc2)nc1` [ONO-7579], the Tmax in series [1] came out at 2 h; in series [2], 7 h.
